IC50, inhibition and Activity data for 23 compounds are collected here from ChEMBL document CHEMBL5032522, “N-2-(phenylamino) benzamide derivatives as novel anti-glioblastoma agents: Synthesis and biological evaluation” (Eur J Med Chem, 2021).

As a reminder, the IC50 is the concentration needed to halve the response being measured.

Calls of active or inactive are those of the source. The calls are words filed in the database; no cut-off is given here.

In series [1] the test system is U-87 MG. Briefly: Antiproliferative activity against human U-87 MG cells assessed as inhibition of cell growth measured after 72 hrs by CCK-8 assay. Format: functional, cell-based, U-87MG ATCC. (Formazan colour is commonly taken as a measure of viable cells.)
Series [2] deals with U-251. Kind of series: Antiproliferative activity against human U-251 cells assessed as inhibition of cell growth measured after 72 hrs by CCK-8 assay. Format: functional, cell-based. Conditions: U-251, 72 h.
Another series relates to C6. Kind of series: Antiproliferative activity against rat C6 cells assessed as inhibition of cell growth measured after 72 hrs by CCK-8 assay. Format: functional, cell-based. Conditions: C6, 72 h.
For series [3], the target named is T1, Prostaglandin G/H synthase 2 (Homo sapiens, UniProt P35354).
T1 sequence (P35354 whole entry): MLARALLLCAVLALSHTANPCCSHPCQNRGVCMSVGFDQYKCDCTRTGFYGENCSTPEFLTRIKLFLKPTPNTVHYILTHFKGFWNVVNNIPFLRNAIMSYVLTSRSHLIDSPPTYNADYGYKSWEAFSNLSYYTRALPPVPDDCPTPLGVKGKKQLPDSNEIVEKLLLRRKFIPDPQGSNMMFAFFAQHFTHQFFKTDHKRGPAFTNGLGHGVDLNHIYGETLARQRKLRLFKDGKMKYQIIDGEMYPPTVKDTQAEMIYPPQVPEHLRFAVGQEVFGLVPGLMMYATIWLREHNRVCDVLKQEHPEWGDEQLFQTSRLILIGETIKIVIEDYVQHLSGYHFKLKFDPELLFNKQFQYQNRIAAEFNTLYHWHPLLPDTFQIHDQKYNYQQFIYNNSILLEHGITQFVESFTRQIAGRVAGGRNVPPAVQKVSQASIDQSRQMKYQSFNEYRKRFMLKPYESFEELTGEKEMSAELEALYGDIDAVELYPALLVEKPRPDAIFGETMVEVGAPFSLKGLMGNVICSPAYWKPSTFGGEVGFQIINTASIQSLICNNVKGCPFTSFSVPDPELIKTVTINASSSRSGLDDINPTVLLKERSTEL
Kind of series: Inhibition of human recombinant COX-2 using arachidonic acid as substrate preincubated 10 mins followed by substrate addition and measured after 2 mins by ELISA. A general note: In an ELISA, binding on a coated surface is turned into a signal by an enzyme label.

The next series deals with T2, DNA topoisomerase 1 (Homo sapiens, UniProt P11387).
T2 sequence (P11387 whole entry): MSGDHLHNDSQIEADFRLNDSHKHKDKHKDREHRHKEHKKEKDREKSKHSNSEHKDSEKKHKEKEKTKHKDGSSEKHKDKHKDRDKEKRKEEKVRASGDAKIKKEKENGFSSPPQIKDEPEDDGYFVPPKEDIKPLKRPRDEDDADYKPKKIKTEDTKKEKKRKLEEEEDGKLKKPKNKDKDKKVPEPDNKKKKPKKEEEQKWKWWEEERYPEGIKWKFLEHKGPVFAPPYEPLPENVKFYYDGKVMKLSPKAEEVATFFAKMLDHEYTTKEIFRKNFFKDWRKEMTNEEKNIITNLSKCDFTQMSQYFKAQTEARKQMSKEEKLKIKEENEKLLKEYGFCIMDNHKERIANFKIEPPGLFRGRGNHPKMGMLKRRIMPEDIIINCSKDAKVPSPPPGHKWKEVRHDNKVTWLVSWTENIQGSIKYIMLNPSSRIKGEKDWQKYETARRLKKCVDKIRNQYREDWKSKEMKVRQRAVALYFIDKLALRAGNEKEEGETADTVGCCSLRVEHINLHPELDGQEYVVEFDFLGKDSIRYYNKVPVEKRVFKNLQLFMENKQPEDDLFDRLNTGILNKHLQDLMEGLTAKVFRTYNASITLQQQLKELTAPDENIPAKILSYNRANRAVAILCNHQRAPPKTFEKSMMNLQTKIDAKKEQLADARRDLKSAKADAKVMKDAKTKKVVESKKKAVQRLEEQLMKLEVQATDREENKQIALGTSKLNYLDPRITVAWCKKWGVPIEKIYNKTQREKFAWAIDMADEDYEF
Kind of series: Inhibition of human topoisomerase I using DNA pBR322 as substrate assessed as DNA relaxation incubated for 45 mins by ethidium bromide staining based agarose gel electrophoresis.

For series [4], the target named is T3, DNA topoisomerase 1 (Homo sapiens) (UniProt P11387).
T3 sequence (whole entry): T2 sequence (P11387 whole entry)
Briefly: Inhibition of human topoisomerase I using DNA pBR322 as substrate assessed as DNA intercalation at 100 uM incubated for 30 mins by ethidium bromide staining based agarose gel electrophoresis method.

Series [5] addresses T4, Prostaglandin G/H synthase 2 (Rattus norvegicus) (UniProt P35355).
T4 sequence (whole entry): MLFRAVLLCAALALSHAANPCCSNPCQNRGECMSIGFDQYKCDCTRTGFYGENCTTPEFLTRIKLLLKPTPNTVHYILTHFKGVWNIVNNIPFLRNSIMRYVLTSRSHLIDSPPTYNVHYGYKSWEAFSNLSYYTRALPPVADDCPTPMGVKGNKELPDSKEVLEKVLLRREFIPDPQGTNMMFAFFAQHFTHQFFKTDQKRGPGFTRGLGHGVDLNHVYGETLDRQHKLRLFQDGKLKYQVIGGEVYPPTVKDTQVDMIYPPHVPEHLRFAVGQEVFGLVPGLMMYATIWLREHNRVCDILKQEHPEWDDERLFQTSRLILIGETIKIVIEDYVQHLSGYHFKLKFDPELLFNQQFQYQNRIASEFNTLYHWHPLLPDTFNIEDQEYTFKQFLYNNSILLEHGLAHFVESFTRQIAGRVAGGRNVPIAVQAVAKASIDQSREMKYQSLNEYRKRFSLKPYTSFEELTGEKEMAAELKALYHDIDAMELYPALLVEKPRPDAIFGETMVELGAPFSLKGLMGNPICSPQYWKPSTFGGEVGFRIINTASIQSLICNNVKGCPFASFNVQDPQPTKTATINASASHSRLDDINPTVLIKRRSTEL
Briefly: In vivo inhibition of COX2 in ip dosed orthotopic Sprague-Dawley rat model inoculated with C6 cells assessed as reduction in PGE2 production by ELISA. Format: functional, organism-based.

The nature of series [6]: Toxicity in Sprague-Dawley rat inoculated with C6 cells assessed as reduction in body weight at 50 mg/kg, ip bid administered for 14 days. Format: organism-based. Conditions: in vivo, 336 h, time 14 day.
Series [7] relates to U-251. Briefly: Inhibition of cell invasion in human U-251 cells incubated for 24 hrs by crystal violet staining based light microscopic analysis. Format: functional.
Series [8] concerns U-87 MG. Briefly: Inhibition of cell invasion in human U-87 MG cells incubated for 24 hrs by crystal violet staining based light microscopic analysis. To be noted: U-87MG ATCC. Format: functional.
In series [9] the test system is U-87 MG. Briefly: Inhibition of cell migration in human U-87 MG cells incubated for 24 hrs by crystal violet staining based light microscopic analysis. Format: functional. Conditions: U-87MG ATCC.
Series [10] relates to U-251. Briefly: Inhibition of cell migration in human U-251 cells incubated for 24 hrs by crystal violet staining based light microscopic analysis. Format: functional.

Turning to `COc1cc(NC(=O)c2ccccc2Nc2cccc(C(F)(F)F)c2)cc(OC)c1OC`, the IC50 is 52.1 µM in the series with U-87 MG [1]; 50.7 µM in the series with U-251 [2]; 75.2 µM in the series on C6; more than 150 µM in series [3]; more than 125 µM at DNA topoisomerase 1.
With `COc1ccc(CCNC(=O)c2ccccc2Nc2ccccc2)cc1`, the IC50 is more than 200 µM with U-87 MG [1]; more than 200 µM in the series with U-251 [2]; 130 µM in the series on C6; more than 150 µM in series [3]; 107 µM on DNA topoisomerase 1.
Regarding `COc1cc(NS(C)(=O)=O)ccc1Nc1c2ccccc2nc2ccccc12`, the inhibition entry in series [4] is “Active”.
In the case of `COc1ccc(NC(=O)c2ccccc2Nc2cccc(Cl)c2C)cc1OC`, the IC50 was 99.8 µM in the series on U-87 MG [1]; more than 200 µM with U-251 [2]; 44 µM with C6; 92.6 µM in [3]; more than 125 µM at DNA topoisomerase 1.
As to `COc1cc(NC(=O)c2ccccc2Nc2cccc(Cl)c2C)cc(OC)c1OC`, the IC50 in the series on U-87 MG [1] is 54.5 µM; in the series on U-251 [2], 178 µM; in the series with C6, more than 200 µM; in [3], 117 µM; at DNA topoisomerase 1, 50.9 µM.
With `COc1ccc(NC(=O)c2cccnc2Nc2cccc(C(F)(F)F)c2)cc1`, the IC50 with U-87 MG [1] is more than 200 µM; with U-251 [2], more than 200 µM; in the series with C6, more than 200 µM; in [3] it was more than 150 µM; at DNA topoisomerase 1, 108 µM.
As for `COc1ccc(NC(=O)c2ccccc2Nc2cccc(Cl)c2C)c(OC)c1`, the IC50 in the series with U-87 MG [1] was more than 200 µM; with U-251 [2], more than 200 µM; with C6, more than 200 µM; in series [3] it was 115 µM; at DNA topoisomerase 1 it was 70.9 µM.
Take `Cn1nnc2c(C(N)=O)ncn2c1=O` [TEMOZOLOMIDE]: the inhibition result in [5] is “inactive”. Besides, the Activity result in [6] is “Toxic”.
With `COc1ccc(NC(=O)c2ccccc2Nc2cccc(C)c2C)cc1`, the 50% inhibitory concentration (IC50) in the series with U-87 MG [1] was 73.5 µM; in the series with U-251 [2] it was 138 µM; in the series on C6, more than 200 µM; in [3], more than 150 µM; at DNA topoisomerase 1 it was more than 125 µM.
As to `COc1ccc(NC(=O)c2cccnc2Nc2cccc(Cl)c2C)cc1`, the 50% inhibitory concentration (IC50) with U-87 MG [1] was 187 µM; in the series on U-251 [2], more than 200 µM; in the series with C6 it was more than 200 µM; in series [3] it was more than 150 µM; at DNA topoisomerase 1 it was 61.2 µM.
As to `COc1ccc(NC(=O)c2ccccc2Nc2cccc(C(F)(F)F)c2)cc1`, the IC50 in the series with U-87 MG [1] was 142 µM; in the series with U-251 [2] it was more than 200 µM; with C6, 99.1 µM; in series [3], more than 150 µM; on DNA topoisomerase 1 it was more than 125 µM.
Take `O=C(Nc1ccc2c(c1)OCO2)c1ccccc1Nc1cccc(C(F)(F)F)c1`: the IC50 with U-87 MG [1] is 26 µM; in the series on U-251 [2] it was 12.9 µM; with C6, 15.6 µM; in series [3], 105 µM; at DNA topoisomerase 1, 105 µM.
Take `COc1ccc(NC(=O)c2ccccc2Nc2cccc(C(F)(F)F)c2)cc1OC`: the 50% inhibitory concentration (IC50) in the series with U-87 MG [1] was 72.4 µM; with U-251 [2], 86.2 µM; in the series with C6, 36.5 µM; in series [3], more than 150 µM; at DNA topoisomerase 1, more than 125 µM.
In the case of `CSc1ccc(NC(=O)c2ccccc2Nc2cccc(C(F)(F)F)c2)cc1`, the IC50 was more than 200 µM in the series on U-87 MG [1]; 92.4 µM in the series with U-251 [2]; more than 200 µM in the series on C6; more than 150 µM in series [3]; more than 125 µM at DNA topoisomerase 1.
Regarding `CC[C@@]1(O)C(=O)OCc2c1cc1n(c2=O)Cc2cc3c(CN(C)C)c(O)ccc3nc2-1` [TOPOTECAN], the IC50 is 0.06 µM in the series with U-87 MG [1], 0.37 µM in the series on U-251 [2] and 5.8 µM in the series on C6.
As for `COc1ccc(CNC(=O)c2ccccc2Nc2ccccc2)cc1`, the IC50 in the series with U-87 MG [1] is more than 200 µM; with U-251 [2] it was more than 200 µM; in the series on C6, more than 200 µM; in series [3] it was 17.4 µM; at DNA topoisomerase 1, more than 125 µM.
In the case of `COc1ccc(NC(=O)c2ccccc2Nc2ccccc2)cc1`, the IC50 in the series with U-87 MG [1] was more than 200 µM; in the series with U-251 [2], 184 µM; in the series on C6, more than 200 µM; in series [3], more than 150 µM; on DNA topoisomerase 1, more than 125 µM.
Turning to `COc1ccc(NC(=O)c2ccccc2NCc2ccccc2)cc1`, the IC50 in the series with U-87 MG [1] is more than 200 µM; in the series with U-251 [2], more than 200 µM; in the series with C6 it was more than 200 µM; in [3], more than 150 µM; on DNA topoisomerase 1, more than 125 µM.
Take `c1ccc(-c2cc(-c3ccccc3)c3ncccc3n2)cc1`: the IC50 in the series on U-87 MG [1] is more than 200 µM; in the series with U-251 [2], more than 200 µM; with C6, 103 µM; in [3], more than 150 µM; at DNA topoisomerase 1 it was more than 125 µM. The inhibition entry in [4] was “inactive”. For the same compound, the inhibition entry in the series with U-251 [7], with U-87 MG [8], with U-87 MG [9] and in the series on U-251 [10] was “Dose-Dependent Effect” in each case.
`COc1ccc(CCCNC(=O)c2ccccc2Nc2ccccc2)cc1`: the IC50 was more than 200 µM in the series on U-87 MG [1]; more than 200 µM in the series on U-251 [2]; more than 200 µM in the series on C6; more than 150 µM in [3]; more than 125 µM at DNA topoisomerase 1.
In the case of `COc1ccc(NC(=O)c2ccccc2Nc2cccc(C)c2C)cc1OC`, the IC50 in the series on U-87 MG [1] was 144 µM; in the series on U-251 [2] it was more than 200 µM; in the series with C6, 169 µM; in [3], 48.1 µM; at DNA topoisomerase 1 it was 85.6 µM.
Take `COc1ccc(NC(=O)c2ccccc2Nc2cccc(Cl)c2)cc1`: the concentration for half-maximal inhibition (IC50) was more than 200 µM in the series with U-87 MG [1]; 165 µM in the series on U-251 [2]; more than 200 µM in the series with C6; more than 150 µM in series [3]; 85.7 µM on DNA topoisomerase 1.
`Cc1c(Cl)cccc1Nc1ccccc1C(=O)O` [TOLFENAMIC ACID]: the IC50 in the series on U-87 MG [1], in the series on U-251 [2] and in the series on C6 was more than 100 µM each time.
